# In patent US9902696B2, “1,4-substituted piperidine derivatives” (Cephalon, Inc., priority 2015, dated 2018):
# Counter-ions that a name gives are not always drawn.
# Molecular target: T1, recombinant human baculovirus-expressed GST-tagged FASN (Homo sapiens, UniProt P49327)
# T1 construct: GST
# Assay: FASN enzyme activity assay, fluorescence-based detection of CoA with CPM
# Format: biochemical
# Conditions: 5 nM FASN, 150 μM NADPH, 10 μM acetyl-CoA, 25 μM malonyl-CoA, 90 minutes incubation; read-out: IC50 data for Compounds of Formulae I-V/V(a): Activity
# Outline: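 CoA product reacted with thiol-reactive CPM (diluted to 50 μM in 70% ethanol), read at 390/530 nm after 30 min. Preceding reaction: 90 min, 5 nM recombinant GST-FASN, 150 μM NADPH, 10 μM acetyl-CoA, 25 μM malonyl-CoA, pH 7.5 HEPES, 0.5% DMSO. IC50s fitted by nonlinear sigmoidal regression.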
# T1 sequence (P49327 whole entry): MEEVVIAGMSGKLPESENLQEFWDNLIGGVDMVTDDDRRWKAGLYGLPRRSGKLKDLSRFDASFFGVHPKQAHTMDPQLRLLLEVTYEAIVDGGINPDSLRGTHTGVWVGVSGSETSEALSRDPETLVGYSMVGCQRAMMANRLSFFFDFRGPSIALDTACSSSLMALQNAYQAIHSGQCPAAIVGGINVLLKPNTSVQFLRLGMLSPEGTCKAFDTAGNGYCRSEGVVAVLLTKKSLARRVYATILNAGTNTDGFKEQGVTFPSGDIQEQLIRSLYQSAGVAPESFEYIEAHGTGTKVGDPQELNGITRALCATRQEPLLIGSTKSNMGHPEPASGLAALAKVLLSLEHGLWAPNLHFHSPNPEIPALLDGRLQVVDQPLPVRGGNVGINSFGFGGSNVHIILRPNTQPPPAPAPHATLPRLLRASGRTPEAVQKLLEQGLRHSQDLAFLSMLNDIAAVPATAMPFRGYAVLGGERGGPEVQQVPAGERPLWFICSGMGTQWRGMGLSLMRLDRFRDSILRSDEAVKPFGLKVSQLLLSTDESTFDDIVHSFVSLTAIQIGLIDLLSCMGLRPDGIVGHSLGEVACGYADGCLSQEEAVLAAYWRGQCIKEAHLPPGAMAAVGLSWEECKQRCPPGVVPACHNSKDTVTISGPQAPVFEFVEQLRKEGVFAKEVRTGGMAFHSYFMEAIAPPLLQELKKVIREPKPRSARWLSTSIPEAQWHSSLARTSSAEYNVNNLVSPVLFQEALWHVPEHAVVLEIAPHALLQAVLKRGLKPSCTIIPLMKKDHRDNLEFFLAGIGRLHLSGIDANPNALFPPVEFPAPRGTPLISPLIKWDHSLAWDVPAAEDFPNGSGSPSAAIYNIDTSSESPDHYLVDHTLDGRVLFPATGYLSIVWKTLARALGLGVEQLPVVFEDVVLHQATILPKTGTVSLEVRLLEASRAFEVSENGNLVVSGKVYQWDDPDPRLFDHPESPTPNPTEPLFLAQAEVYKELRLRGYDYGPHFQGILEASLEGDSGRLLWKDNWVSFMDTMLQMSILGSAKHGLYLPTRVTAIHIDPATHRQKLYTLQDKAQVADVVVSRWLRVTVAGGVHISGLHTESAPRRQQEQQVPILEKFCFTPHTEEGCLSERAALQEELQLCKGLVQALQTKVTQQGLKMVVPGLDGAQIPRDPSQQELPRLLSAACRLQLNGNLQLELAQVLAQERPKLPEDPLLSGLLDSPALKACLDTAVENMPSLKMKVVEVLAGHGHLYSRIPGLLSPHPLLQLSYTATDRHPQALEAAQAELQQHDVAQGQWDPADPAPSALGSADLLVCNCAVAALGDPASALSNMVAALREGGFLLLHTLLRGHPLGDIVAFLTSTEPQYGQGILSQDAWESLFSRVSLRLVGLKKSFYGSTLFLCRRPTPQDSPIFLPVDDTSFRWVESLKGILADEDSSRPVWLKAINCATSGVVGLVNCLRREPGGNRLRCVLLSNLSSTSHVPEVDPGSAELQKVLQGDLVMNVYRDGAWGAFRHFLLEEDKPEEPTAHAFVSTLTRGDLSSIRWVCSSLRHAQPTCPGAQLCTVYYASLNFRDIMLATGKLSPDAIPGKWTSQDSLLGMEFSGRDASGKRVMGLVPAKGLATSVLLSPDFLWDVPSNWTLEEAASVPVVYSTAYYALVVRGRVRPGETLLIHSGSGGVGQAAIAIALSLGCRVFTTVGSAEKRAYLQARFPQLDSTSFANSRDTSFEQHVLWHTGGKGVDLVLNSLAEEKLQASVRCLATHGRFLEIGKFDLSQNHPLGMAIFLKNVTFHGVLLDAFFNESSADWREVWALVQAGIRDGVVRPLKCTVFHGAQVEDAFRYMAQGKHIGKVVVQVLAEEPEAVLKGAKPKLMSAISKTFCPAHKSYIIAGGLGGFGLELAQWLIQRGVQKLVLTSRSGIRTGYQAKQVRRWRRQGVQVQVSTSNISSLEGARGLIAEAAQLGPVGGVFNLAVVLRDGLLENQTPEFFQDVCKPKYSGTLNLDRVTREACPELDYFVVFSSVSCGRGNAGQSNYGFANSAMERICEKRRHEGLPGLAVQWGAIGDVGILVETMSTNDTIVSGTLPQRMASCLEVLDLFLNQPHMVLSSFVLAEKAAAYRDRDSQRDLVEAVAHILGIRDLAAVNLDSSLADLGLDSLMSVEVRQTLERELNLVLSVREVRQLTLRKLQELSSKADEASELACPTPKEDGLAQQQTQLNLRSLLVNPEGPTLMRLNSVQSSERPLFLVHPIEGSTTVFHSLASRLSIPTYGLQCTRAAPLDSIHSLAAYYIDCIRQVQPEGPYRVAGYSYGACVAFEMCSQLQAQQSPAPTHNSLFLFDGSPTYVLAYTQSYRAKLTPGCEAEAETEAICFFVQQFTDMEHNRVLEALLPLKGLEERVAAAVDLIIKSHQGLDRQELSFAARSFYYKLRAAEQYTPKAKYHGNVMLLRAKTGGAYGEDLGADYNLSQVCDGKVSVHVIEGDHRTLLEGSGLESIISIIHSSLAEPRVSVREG
row,IC50 [nM],Compound
1,1000 to 10000,"CCC(=O)N1CCC(Oc2ccc(-c3ccc4cnc(OC)cc4c3)cc2)CC1 [Example 415, 1-{4-[4-(3-Methoxyisoquinolin-6-yl)-phenoxy]-piperidin-1-yl}-propan-1-one]"
2,100 to 999,"COc1cc2cc(-c3ccc(OC4CCN(C(=O)C5CC5)CC4)cc3)ccc2cn1 [Example 416, Cyclopropyl-{4-[4-(3-methoxyisoquinolin-6-yl)-phenoxy]-piperidin-1-yl}-methanone]"
3,100 to 999,"COc1cc2cc(-c3ccc(OC4CCN(C(=O)C5CCC5)CC4)cc3)ccc2cn1 [Example 417, Cyclobutyl-{4-[4-(3-methoxyisoquinolin-6-yl)-phenoxy]-piperidin-1-yl}-methanone]"
4,1 to 99,"COc1cc2cc(-c3ccc(OC4CCN(C(=O)[C@H]5CCCO5)CC4)cc3)ccc2cn1 [Example 418, {4-[4-(3-Methoxy-isoquinolin-6-yl)-phenoxy]-piperidin-1-yl}-(R)-tetrahydrofuran-2-yl-methanone]"
5,100 to 999,"CCC(=O)N1CCC(Oc2ccc(-c3ccc4c(Cl)nccc4c3)cc2)CC1 [Example 419, 1-{4-[4-(1-Chloroisoquinolin-6-yl)-phenoxy]-piperidin-1-yl}-propan-1-one]"
6,100 to 999,"O=C(C1CC1)N1CCC(Oc2ccc(-c3ccc4c(Cl)nccc4c3)cc2)CC1 [Example 420, {4-[4-(1-Chloroisoquinolin-6-yl)-phenoxy]-piperidin-1-yl}-cyclopropyl-methanone]"
7,1000 to 10000,"CCC(=O)N1CCC(Oc2ccc(-c3ccc4cnc(N(C)C)cc4c3)cc2)CC1 [Example 421, 1-{4-[4-(3-Dimethylaminoisoquinolin-6-yl)-phenoxy]-piperidin-1-yl}-propan-1-one]"
8,100 to 999,"CCC(=O)N1CCC(Oc2ccc(-c3ccc4cnc(N)cc4c3)cc2)CC1 [Example 422, 1-{4-[4-(3-Aminoisoquinolin-6-yl)-phenoxy]-piperidin-1-yl}-propan-1-one]"
9,100 to 999,"Nc1cc2cc(-c3ccc(OC4CCN(C(=O)C5CC5)CC4)cc3)ccc2cn1 [Example 423, {4-[4-(3-Aminoisoquinolin-6-yl)-phenoxy]-piperidin-1-yl}-cyclopropyl-methanone]"
10,1 to 99,"COc1cc(-c2ccc(OC3CCN(C(=O)[C@H]4CCCO4)CC3)cc2)cn2nccc12 [Example 424, {4-[4-(4-Methoxypyrazolo[1,5-a]pyridin-6-yl)-phenoxy]-piperidin-1-yl}-(R)-tetrahydrofuran-2-yl-methanone, HCl]"
11,1 to 99,"CCC(=O)N1CCC(Oc2ccc(-c3ccc4c(C)nccc4c3)cc2)CC1 [Example 425, 1-{4-[4-(1-Methylisoquinolin-6-yl)-phenoxy]-piperidin-1-yl}-propan-1-one]"
12,1000 to 10000,"CCC(=O)N1CCC(Oc2ccc(-c3cc(O)c4ccnn4c3)cc2)CC1 [Example 426, 1-{4-[4-(4-Hydroxypyrazolo[1,5-a]pyridin-6-yl)-phenoxy]-piperidin-1-yl}-propan-1-one]"
13,1000 to 10000,"O=C(C1CCC1)N1CCC(Oc2ccc(-c3cc(O)c4ccnn4c3)cc2)CC1 [Example 427, Cyclobutyl-{4-[4-(4-hydroxy-pyrazolo[1,5-a]pyridin-6-yl)-phenoxy]-piperidin-1-yl}-methanone]"
14,100 to 999,"O=C(C1CCC1)N1CCC(Oc2ccc(-c3ccc4c(Cl)nccc4c3)cc2)CC1 [Example 428, {4-[4-(1-Chloroisoquinolin-6-yl)-phenoxy]-piperidin-1-yl}-cyclobutyl-methanone]"
15,1 to 99,"O=C([C@H]1CCCO1)N1CCC(Oc2ccc(-c3ccc4c(Cl)nccc4c3)cc2)CC1 [Example 429, {4-[4-(1-Chloroisoquinolin-6-yl)-phenoxy]-piperidin-1-yl}-(R)-tetrahydro-furan-2-yl-methanone]"
16,1000 to 10000,"CCC(=O)N1CCC(Oc2ccc(-c3ccc4cnc(C)cc4c3)cc2)CC1 [Example 430, 1-{4-[4-(3-Methylisoquinolin-6-yl)-phenoxy]-piperidin-1-yl}-propan-1-one]"
17,1 to 99,"Cc1nccc2cc(-c3ccc(OC4CCN(C(=O)[C@H]5CCCO5)CC4)cc3)ccc12 [Example 431, {4-[4-(1-Methylisoquinolin-6-yl)-phenoxy]-piperidin-1-yl}-(R)-tetrahydro-furan-2-yl-methanone]"
18,1 to 99,"COc1nccc2cc(-c3ccc(OC4CCN(C(=O)[C@H]5CCCO5)CC4)cc3)ccc12 [Example 432, {4-[4-(1-Methoxyisoquinolin-6-yl)-phenoxy]-piperidin-1-yl}-(R)-tetrahydro-furan-2-yl-methanone]"
19,100 to 999,CCC(=O)N1CCC(Oc2ccc(-c3ccc4c(OC)nccc4c3)cc2)CC1 [Example 433]

row,IC50 [nM],Compound
1,100 to 999,"COc1nccc2cc(-c3ccc(OC4CCN(C(=O)C5CCC5)CC4)cc3)ccc12 [Example 434, Cyclobutyl-{4-[4-(1-methoxyisoquinolin-6-yl)-phenoxy]-piperidin-1-yl}-methanone]"
2,100 to 999,"COc1nccc2cc(-c3ccc(OC4CCN(C(=O)C5CC5)CC4)cc3)ccc12 [Example 435, Cyclopropyl-{4-[4-(1-methoxyisoquinolin-6-yl)-phenoxy]-piperidin-1-yl}-methanone]"
3,1 to 99,"Nc1cc2cc(-c3ccc(OC4CCN(C(=O)[C@H]5CCCO5)CC4)cc3)ccc2cn1 [Example 436, {4-[4-(3-Aminoisoquinolin-6-yl)-phenoxy]-piperidin-1-yl}-(R)-tetrahydro-furan-2-yl-methanone]"
4,1 to 99,"Cc1cc2cc(-c3ccc(OC4CCN(C(=O)[C@H]5CCCO5)CC4)cc3)ccc2cn1 [Example 437, {4-[4-(3-Methylisoquinolin-6-yl)-phenoxy]-piperidin-1-yl}-(R)-tetrahydro-furan-2-yl-methanone]"
5,1 to 99,"CCc1nccc2cc(-c3ccc(OC4CCN(C(=O)[C@H]5CCCO5)CC4)cc3)ccc12 [Example 438, {4-[4-(1-Ethylisoquinolin-6-yl)-phenoxy]-piperidin-1-yl}-(R)-tetrahydro-furan-2-yl-methanone, HCl]"
6,1000 to 10000,"CCC(=O)N1CCC(Oc2ccc(-c3ccc4c(C5CC5)nccc4c3)cc2)CC1 [Example 439, 1-{4-[4-(1-Cyclopropyl-isoquinolin-6-yl)-phenoxy]-piperidin-1-yl}-propan-1-one]"
7,1 to 99,"O=C([C@H]1CCCO1)N1CCC(Oc2ccc(-c3ccc4c(C5CC5)nccc4c3)cc2)CC1 [Example 440, {4-[4-(1-Cyclopropylisoquinolin-6-yl)-phenoxy]-piperidin-1-yl}-(R)-tetrahydrofuran-2-yl-methanone]"
8,1000 to 10000,"CCC(=O)N1CCC(Oc2ccc(-c3cnc4cc(OC)c(C)cc4c3)cc2)CC1 [Example 441, 1-{4-[4-(7-Methoxy-6-methylquinolin-3-yl)-phenoxy]-piperidin-1-yl}-propan-1-one]"
9,1000 to 10000,"COc1cc2ncc(-c3ccc(OC4CCN(C(=O)C5CC5)CC4)cc3)cc2cc1C [Example 442, Cyclopropyl-{4-[4-(7-methoxy-6-methylquinolin-3-yl)-phenoxy]-piperidin-1-yl}-methanone]"
10,1000 to 10000,"COc1cc2ncc(-c3ccc(OC4CCN(C(=O)[C@H]5CCCO5)CC4)cc3)cc2cc1C [Example 443, {4-[4-(7-Methoxy-6-methylquinolin-3-yl)-phenoxy]-piperidin-1-yl}-(R)-tetrahydrofuran-2-yl-methanone]"
11,1000 to 10000,"CCC(=O)N1CCC(Oc2ccc(-c3cnc4cc(OC)c(F)cc4c3)cc2)CC1 [Example 444, 1-{4-[4-(6-Fluoro-7-methoxyquinolin-3-yl)-phenoxy]-piperidin-1-yl}-propan-1-one]"
12,1000 to 10000,"COc1cc2ncc(-c3ccc(OC4CCN(C(=O)C5CC5)CC4)cc3)cc2cc1F [Example 445, Cyclopropyl-{4-[4-(6-fluoro-7-methoxyquinolin-3-yl)-phenoxy]-piperidin-1-yl}-methanone]"
13,1000 to 10000,"COc1cc2ncc(-c3ccc(OC4CCN(C(=O)[C@H]5CCCO5)CC4)cc3)cc2cc1F [Example 446, {4-[4-(6-Fluoro-7-methoxyquinolin-3-yl)-phenoxy]-piperidin-1-yl}-(R)-tetrahydrofuran-2-yl-methanone]"
14,1000 to 10000,"CCC(=O)N1CCC(Oc2ccc(-c3cnc4cc(OC)c(Cl)cc4c3)cc2)CC1 [Example 447, 1-{4-[4-(6-Chloro-7-methoxyquinolin-3-yl)-phenoxy]-piperidin-1-yl}-propan-1-one]"
15,1000 to 10000,"COc1cc2ncc(-c3ccc(OC4CCN(C(=O)C5CC5)CC4)cc3)cc2cc1Cl [Example 448, {4-[4-(6-Chloro-7-methoxyquinolin-3-yl)-phenoxy]-piperidin-1-yl}-cyclopropylmethanone]"
16,1000 to 10000,"COc1cc2ncc(-c3ccc(OC4CCN(C(=O)[C@H]5CCCO5)CC4)cc3)cc2cc1Cl [Example 449, {4-[4-(6-Chloro-7-methoxyquinolin-3-yl)-phenoxy]-piperidin-1-yl}-(R)-tetrahydrofuran-2-yl-methanone]"
17,1 to 99,"COc1ccc2ncc(-c3ccc(OC4CCN(C(=O)[C@H]5CCCO5)CC4)cc3)cc2c1 [Example 450, {4-[4-(6-Methoxyquinolin-3-yl)-phenoxy]-piperidin-1-yl}-(R)-tetrahydro-furan-2-yl-methanone, HCl]"
18,1 to 99,"CC(C)Oc1cc2cc(-c3ccc(OC4CCN(C(=O)[C@H]5CCCO5)CC4)cc3)ccc2cn1 [Example 451, {4-[4-(3-Isopropoxyisoquinolin-6-yl)-phenoxy]-piperidin-1-yl}-(R)-tetrahydrofuran-2-yl-methanone]"
19,1 to 99,"O=C([C@H]1CCCO1)N1CCC(Oc2ccc(-c3ccc4c(N5CCOCC5)nccc4c3)cc2)CC1 [Example 452, {4-[4-(1-Morpholin-4-yl-isoquinolin-6-yl)-phenoxy]-piperidin-1-yl}-(R)-tetrahydrofuran-2-yl-methanone]"
